Source: US9999690B2, “Labeled compounds and methods of imaging, diagnosing cartilage disorders and diseases, and monitoring cartilage health using labeled and unlabeled compounds” (Perosphere Inc., priority 2013, dated 2018)
“And” between values parts separate entries of the source, which are not always exact repeats. Equal values may be shown once.

Tests used:
[1] = Rat mass balance recovery (urine, feces, cage rinses and wipes, carcasses, expired air), Groups 2 and 3; assay type: in vivo; set-up: Mass Balance Recovery, Feces Subtotal / Mass Balance Recovery, Expired Air, Trap 1 / Mass Balance Recovery, Expired Air, Trap 1 Subtotal: unit not given here; details: for Mass Balance Recovery, Feces / Mass Balance Recovery, Cage Rinse / Mass Balance Recovery, Dose Site Wipe / Mass Balance Recovery, Urine / Mass Balance Recovery, Cage Wipe / Mass Balance Recovery, Carcass / Mass Balance Recovery, Feces Subtotal / Mass Balance Recovery, Cage Rinse Subtotal / Mass Balance Recovery, Urine Subtotal: rat Group 2, IV dose; for Mass Balance Recovery, Dose Site Wipe: 0 hrs; for Mass Balance Recovery, Cage Wipe / Mass Balance Recovery, Carcass: 96 hrs; for Mass Balance Recovery, Expired Air, Trap 1 / Mass Balance Recovery, Expired Air, Trap 1 Subtotal: rat Group 3, IV dose; for Mass Balance Recovery, TOTAL: rat Groups 2 and 3, IV dose
Experimental: (§1) A study was conducted to determine the pharmacokinetics, rates and routes of excretion with mass baseline and tissue distribution of radioactivity, after a single intravenous dose administration of formula XIII (also referred to as [^14C]DAP) was administered to the rats by tail vein intravenous injection at a
(§2) The study was conducted on 19 male rats divided into 4 groups. The first group of 6 rats was used for blood collection (Group 1); the second group of 4 rats was used for urine, feces, cage rinses and wipes and carcasses collection (Group 2); the third group of 4 rats was used for expired air collection (Group 3); the fourth group of 5 rats was used for terminal blood/serum and tissue distribution by Quantitative Whole-Body Autoradiography (QWBA) (Group 4).

[2] = Rat blood PK samples after intravenous injection, Group 1; assay type: in vivo; details: rat Group 1, IV injection, in ng-eq/g
Experimental: as §1, §2

[3] = Rat blood PK and blood to serum ratio, Group 4; assay type: in vivo
Experimental: as §1, §2
For Group 4, formula XIII (QWBA was run at 1, 8, 12, 24 and 72 hours post dose. After terminal blood collection, each euthanized animal was frozen in a hexane/dry ice bath and embedded in a 2% carboxymethylcellulose matrix according to MPI Research SOP ADME-112. The embedded carcasses were sectioned according to MPI Research SOP ADME-113 on a Leica CM3600 Cyromacrotome set to maintain −10 to −30° C. At least four fortified quality control standards of known radioactive concentration were placed into the frozen block prior to sectioning and used for section thickness quality control. The quality control standards were sectioned under the same conditions as the specimen. The intrasection and intersection variation of collected sections were determined by analyzing the quality control standards. Section variation must be less than 20% for quantitative analysis. Sections that were approximately 40μm thick were taken in the sagittal plane. Appropriate sections selected at various levels of interest in the block were collected to encompass the following tissues, organs, and biological fluids, where possible: adrenal gland, bladder (urinary) and contents (urine), blood (cardiac), bone, bone marrow, brain, eye, fat (brown), fat (white), heart, kidney, large intestine/cecum and contents, liver, lung, muscle, pancreas, prostate, salivary glands, skin, small intestine and contents, spleen, stomach and contents, testes, thymus, thyroid, mesenteric lymph nodes, and epididymis. A set of sections were mounted, exposed to phosphor imaging screens and scanned using the Storm 860 image acquisition system according to MPI Research SOP ADME-112. Quantification, relative to the calibration standards, were performed by image densitometry using MCID™ image analysis software according to MPI Research SOP ADME-114. A standard curve was constructed from the integrated response (MDC/mm2) and the nominal concentrations of the [^14C]Glucose calibration standards. Relative error should be less than 0.5 for each point on the curve. The concentrations of radioactivity were expressed as μCi/g and were converted to μg or ng-equivalents of DAP per gram of sample (μg- or ng-eq/g) using the specific activity of administered [^14C]DAP dose formulation. A lower limit of quantification (LLOQ) was applied to the data. The LLOQ was determined using the radioactive concentration of the lowest calibration standard used to generate a calibration curve divided by the specific activity of the dose formulation (μCi/ug). Artifacts, such as those produced by dislodged contents of the alimentary canal, were excluded from analysis during image analysis.

[4] = In vivo toxicity study, rats; details: rat, read-out: Maximum tolerated dose
Experimental: (§3) A study was conducted to test the toxicity of labeled formula XIII in rats and dogs. Maximum tolerated doses were 40 mg/kg for rats and 35 mg/kg for dogs.

[5] = In vivo toxicity study, dogs; details: dog, read-out: Maximum tolerated dose
Experimental: as §3

[6] = In vivo safety study in humans; details: intravenous bolus doses up to 200 mg
Experimental: A study was conducted to test the safety profile of labeled formula XIII in humans in intravenous bolus doses up to 200 mg.

[7] = 24-48 hrs, Mean, in % (unit assumed)
[8] = 24-48 hrs, individual rats 201M-204M, in % (unit assumed)
[9] = 48-72 hrs, Mean, in % (unit assumed)
[10] = 48-72 hrs, individual rats 201M-204M, in % (unit assumed)
[11] = 72-96 hrs, Mean, in % (unit assumed)
[12] = 72-96 hrs, individual rats 201M-204M, in % (unit assumed)
[13] = individual rats 201M-204M, in % (unit assumed)

[2H]C1([2H])N(CCCNC(=O)[C@@H](N)CCCNC(=N)N)C([2H])([2H])C([2H])([2H])N(CCCNC(=O)[C@@H](N)CCCNC(=N)N)C1([2H])[2H] [formula XIII]
Mass Balance Recovery, Feces ([1]; 0-8 hrs, Mean, in % (unit assumed)): 0.02
Mass Balance Recovery, Feces ([1]; 0-8 hrs, individual rats 201M-204M): 0.00 and 0.04 (2×) and 0.01
Mass Balance Recovery, Cage Rinse ([1]; 0-24 hrs, Mean, in % (unit assumed)): 1.74
Mass Balance Recovery, Cage Rinse ([1]; 0-24 hrs, individual rats 201M-204M, in % (unit assumed)): 2.48 and 0.91 and 1.94 and 1.63
Mass Balance Recovery, Dose Site Wipe ([1]; Mean): 0.01%
Mass Balance Recovery, Dose Site Wipe ([1]; individual rats 201M-204M): 0.01% (3×) and 0%
Mass Balance Recovery, Feces ([1]; 8-24 hrs, Mean, in % (unit assumed)): 1.82
Mass Balance Recovery, Feces ([1]; 8-24 hrs, individual rats 201M-204M, in % (unit assumed)): 1.34 and 2.04 and 2.40 and 1.49
Mass Balance Recovery, Cage Rinse [1, 7]: 0.32
Mass Balance Recovery, Feces [1, 7]: 0.93
Mass Balance Recovery, Urine [1, 7]: 3.71
Mass Balance Recovery, Feces ([1]; 24-48 hrs, individual rats 201M-204M): 1.18 and 0.70 (2×) and 1.15
Mass Balance Recovery, Cage Rinse [1, 8]: 0.37 and 0.21 and 0.38 and 0.30
Mass Balance Recovery, Urine [1, 8]: 3.83 and 3.59 and 4.50 and 2.92
Mass Balance Recovery, Cage Rinse [1, 9]: 0.18
Mass Balance Recovery, Feces [1, 9]: 0.42
Mass Balance Recovery, Urine [1, 9]: 1.58
Mass Balance Recovery, Urine ([1]; 48-72 hrs, individual rats 201M-204M): 1.61% (2×) and 1.73% and 1.36%
Mass Balance Recovery, Cage Rinse [1, 10]: 0.13 and 0.11 and 0.20 and 0.28
Mass Balance Recovery, Feces [1, 10]: 0.46 and 0.41 and 0.54 and 0.26
Mass Balance Recovery, Cage Rinse [1, 11]: 0.16
Mass Balance Recovery, Feces [1, 11]: 0.25
Mass Balance Recovery, Urine [1, 11]: 0.94
Mass Balance Recovery, Cage Rinse [1, 12]: 0.12 and 0.11 and 0.24 and 0.15
Mass Balance Recovery, Feces [1, 12]: 0.31 and 0.26 and 0.27 and 0.15
Mass Balance Recovery, Urine [1, 12]: 0.97 and 1.03 and 0.96 and 0.79
Mass Balance Recovery, Cage Wipe ([1]; Mean, in % (unit assumed)): 0.10
Mass Balance Recovery, Carcass ([1]; Mean, in % (unit assumed)): 2.71
Mass Balance Recovery, Cage Wipe [1, 13]: 0.08 and 0.06 and 0.20 and 0.04
Mass Balance Recovery, Carcass [1, 13]: 2.74 and 2.80 and 2.60 and 2.68
Mass Balance Recovery, Feces Subtotal ([1]; Mean): 3.44
Mass Balance Recovery, Cage Rinse Subtotal ([1]; Mean, in % (unit assumed)): 2.39
Mass Balance Recovery, Urine Subtotal ([1]; Mean, in % (unit assumed)): 89.51
Mass Balance Recovery, Feces Subtotal ([1]; individual rats 201M-204M): 3.29 and 3.45 and 4.37 and 2.64
Mass Balance Recovery, Cage Rinse Subtotal [1, 13]: 3.10 and 1.34 and 2.76 and 2.36
Mass Balance Recovery, Urine Subtotal [1, 13]: 89.44 and 90.60 and 87.85 and 90.14
Mass Balance Recovery, Expired Air, Trap 1 ([1]; 0-24 hrs, Mean): 0.03
Mass Balance Recovery, Expired Air, Trap 1 ([1]; 0-24 hrs, individual rats 301M-304M): 0.03 (3×) and 0.02
Mass Balance Recovery, Expired Air, Trap 1 ([1]; 24-48 hrs, Mean): 0.00
Mass Balance Recovery, Expired Air, Trap 1 ([1]; 24-48 hrs, individual rats 301M-304M): 0.00
Mass Balance Recovery, Expired Air, Trap 1 ([1]; 48-72 hrs, Mean): 0.01
Mass Balance Recovery, Expired Air, Trap 1 ([1]; 48-72 hrs, individual rats 301M-304M): 0.00 (3×) and 0.05
Mass Balance Recovery, Expired Air, Trap 1 Subtotal ([1]; Mean): 0.04
Mass Balance Recovery, Expired Air, Trap 1 Subtotal ([1]; individual rats 301M-304M): 0.03 (2×) and 0.02 and 0.08
Mass Balance Recovery, TOTAL ([1]; (201M/301M to 204M/304M), in % (unit assumed)): 98.72 and 98.32 and 97.83 and 97.98
Mass Balance Recovery, TOTAL ([1]; Mean, in % (unit assumed)): 98.21
time after administration by which the vast majority is excreted (urinary excretion kinetics) ([1]; rat, single IV dose, FIG. 6): < 24 h
total recovery ([1]; rat, single intravenous administration, Groups 2 and 3, FIG. 8): 98.21±0.4%
Rat Blood PK Samples ([2]; 0.083 hrs, Mean): 12494.00
Rat Blood PK Samples ([2]; 0.083 hrs, individual rats): 12283.00 and 12343.00 and 12856.00
Rat Blood PK Samples ([2]; 0.250 hrs, Mean): 7636.87
Rat Blood PK Samples ([2]; 0.250 hrs, individual rats): 6989.90 and 8433.50 and 7487.20
Rat Blood PK Samples ([2]; 0.5 hrs, Mean): 4715.77
Rat Blood PK Samples ([2]; 0.5 hrs, individual rats): 4890.10 and 4595.70 and 4661.50
Rat Blood PK Samples ([2]; 1 hrs, Mean): 1639.20
Rat Blood PK Samples ([2]; 1 hrs, individual rats): 1277.80 and 2173.10 and 1466.70
Rat Blood PK Samples ([2]; 2 hrs, Mean): 497.04
Rat Blood PK Samples ([2]; 2 hrs, individual rats): 513.73 and 503.14 and 474.26
Rat Blood PK Samples ([2]; 4 hrs, Mean): 251.03
Rat Blood PK Samples ([2]; 4 hrs, individual rats): 244.30 and 269.75 and 239.03
Rat Blood PK Samples ([2]; 8 hrs, Mean): 187.88
Rat Blood PK Samples ([2]; 8 hrs, individual rats): 207.32 and 187.12 and 169.19
Rat Blood PK Samples ([2]; 12 hrs, Mean): 145.76
Rat Blood PK Samples ([2]; 12 hrs, individual rats): 149.71 and 148.64 and 138.94
Rat Blood PK Samples ([2]; 24 hrs, Mean): 99.45
Rat Blood PK Samples ([2]; 24 hrs, individual rats): 105.64 and 108.29 and 84.43
Rat Blood PK Samples ([2]; 48 hrs, Mean): 50.56
Rat Blood PK Samples ([2]; 48 hrs, individual rats): 49.28 and 52.03 and 50.38
Rat Blood PK Samples ([2]; 72 hrs, Mean): 24.63
Rat Blood PK Samples ([2]; 72 hrs, individual rats): 23.54 and 33.09 and 17.27
Rat Blood PK Samples ([2]; 96 hrs, Mean): 17.23
Rat Blood PK Samples ([2]; 96 hrs, individual rats): 17.39 and 16.69 and 17.60
Blood:Serum Ratio ([3]; rat Group 4, 1 hrs, rat 401M): 0.44
Blood:Serum Ratio ([3]; rat Group 4, 8 hrs, rat 402M): 1.32
Blood:Serum Ratio ([3]; rat Group 4, 12 hrs, rat 403M): 1.84
Blood:Serum Ratio ([3]; rat Group 4, 24 hrs, rat 404M): 2.27
Blood:Serum Ratio ([3]; rat Group 4, 72 hrs, rat 405M): 2.53
MTD [4]: 40 mg/kg
MTD [5]: 35 mg/kg
safety profile [6]: excellent safety profile
